The record followed here is US11566022B2, “3-(5-methoxy-1-oxoisoindolin-2-yl)piperidine-2,6-dione derivatives and uses thereof” (NOVARTIS AG, priority 2019, dated 2023).

The target of this assay is HiBit-WIZ fusion protein (Homo sapiens, UniProt O95785+Q96SW2). Briefly: Quantification of WIZ protein levels in HiBit tag fusion protein assay (WIZ HiBit assay in 293T cells). Type of assay: cell-based. The arrangement: Dmax: dose or concentration left out as unconfirmed. Particulars: for Dmax / remaining activity at up to 25 µM: HEK-293T, 293T cells; for Dmax: 100 minus Amax, read-out: % degradation of WIZ (100-Amax); for remaining activity at up to 25 µM: DMSO-normalized, curve-fitted percentage of WIZ-HiBit remaining at 25 uM, read-out: WIZ Amax; for DC50: WIZ HiBit assay in 293T cells, 10-point, 5-fold dose response, highest concentration 25 μM, about 18 hours, read-out: WIZ AC50. A general note: With HiBiT, luminescence reflects the tagged protein that the partner subunit can reach.
Chain of HiBit-WIZ fusion protein (O95785 whole entry, the tested form may be a part): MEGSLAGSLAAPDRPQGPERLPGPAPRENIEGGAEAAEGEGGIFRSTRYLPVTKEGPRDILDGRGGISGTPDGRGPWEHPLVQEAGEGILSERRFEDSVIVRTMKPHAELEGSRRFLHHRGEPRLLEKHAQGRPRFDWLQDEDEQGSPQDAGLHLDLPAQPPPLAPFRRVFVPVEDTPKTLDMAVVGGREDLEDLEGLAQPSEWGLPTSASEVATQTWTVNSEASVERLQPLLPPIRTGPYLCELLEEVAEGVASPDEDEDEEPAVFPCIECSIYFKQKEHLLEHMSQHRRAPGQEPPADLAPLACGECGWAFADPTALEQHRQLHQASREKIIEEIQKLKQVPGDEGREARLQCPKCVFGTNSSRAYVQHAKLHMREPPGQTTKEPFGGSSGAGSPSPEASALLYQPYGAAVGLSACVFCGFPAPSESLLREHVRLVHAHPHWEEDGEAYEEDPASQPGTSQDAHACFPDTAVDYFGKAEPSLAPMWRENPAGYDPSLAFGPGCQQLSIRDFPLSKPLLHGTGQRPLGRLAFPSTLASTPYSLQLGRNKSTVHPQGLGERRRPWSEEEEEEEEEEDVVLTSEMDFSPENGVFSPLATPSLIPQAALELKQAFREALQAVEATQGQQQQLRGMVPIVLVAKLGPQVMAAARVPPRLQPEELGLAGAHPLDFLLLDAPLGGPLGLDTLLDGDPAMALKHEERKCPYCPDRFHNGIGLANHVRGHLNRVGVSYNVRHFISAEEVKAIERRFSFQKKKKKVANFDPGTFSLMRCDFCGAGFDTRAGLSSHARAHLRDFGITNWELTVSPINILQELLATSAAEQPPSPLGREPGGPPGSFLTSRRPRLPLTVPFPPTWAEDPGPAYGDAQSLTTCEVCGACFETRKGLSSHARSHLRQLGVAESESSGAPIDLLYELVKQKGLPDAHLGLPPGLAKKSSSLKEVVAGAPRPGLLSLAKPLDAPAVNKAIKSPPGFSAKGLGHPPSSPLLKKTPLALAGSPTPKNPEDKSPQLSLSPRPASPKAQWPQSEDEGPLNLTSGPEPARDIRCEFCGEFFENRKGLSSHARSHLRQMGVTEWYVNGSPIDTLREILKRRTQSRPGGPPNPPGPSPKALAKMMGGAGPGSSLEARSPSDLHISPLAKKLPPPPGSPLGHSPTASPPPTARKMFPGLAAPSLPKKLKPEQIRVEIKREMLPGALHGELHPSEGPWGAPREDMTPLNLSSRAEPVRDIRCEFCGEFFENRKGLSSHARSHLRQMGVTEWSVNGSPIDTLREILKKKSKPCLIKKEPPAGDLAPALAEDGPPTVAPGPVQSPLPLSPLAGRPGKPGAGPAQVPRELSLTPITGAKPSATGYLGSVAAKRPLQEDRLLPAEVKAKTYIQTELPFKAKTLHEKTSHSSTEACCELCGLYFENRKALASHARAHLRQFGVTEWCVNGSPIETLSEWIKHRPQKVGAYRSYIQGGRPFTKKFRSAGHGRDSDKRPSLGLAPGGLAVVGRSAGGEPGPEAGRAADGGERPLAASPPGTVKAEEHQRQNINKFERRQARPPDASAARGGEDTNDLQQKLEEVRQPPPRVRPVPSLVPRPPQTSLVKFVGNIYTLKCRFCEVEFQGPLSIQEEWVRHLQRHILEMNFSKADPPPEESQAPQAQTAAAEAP
Chain of HiBit-WIZ fusion protein (Q96SW2 whole entry, the tested form may be a part): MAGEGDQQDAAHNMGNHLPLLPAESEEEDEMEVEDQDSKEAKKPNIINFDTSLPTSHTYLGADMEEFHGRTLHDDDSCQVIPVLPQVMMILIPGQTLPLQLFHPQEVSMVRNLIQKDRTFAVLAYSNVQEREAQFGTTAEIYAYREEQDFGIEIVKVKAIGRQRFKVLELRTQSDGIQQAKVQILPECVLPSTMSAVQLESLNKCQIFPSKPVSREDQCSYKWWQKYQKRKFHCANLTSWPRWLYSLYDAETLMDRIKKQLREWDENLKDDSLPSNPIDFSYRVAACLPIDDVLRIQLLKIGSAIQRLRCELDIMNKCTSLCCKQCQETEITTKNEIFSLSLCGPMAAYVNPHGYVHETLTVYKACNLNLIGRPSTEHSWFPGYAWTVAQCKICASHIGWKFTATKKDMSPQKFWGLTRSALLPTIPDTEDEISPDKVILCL
Chain of HiBit-WIZ fusion protein (Q16531 whole entry partner, the tested form may be a part): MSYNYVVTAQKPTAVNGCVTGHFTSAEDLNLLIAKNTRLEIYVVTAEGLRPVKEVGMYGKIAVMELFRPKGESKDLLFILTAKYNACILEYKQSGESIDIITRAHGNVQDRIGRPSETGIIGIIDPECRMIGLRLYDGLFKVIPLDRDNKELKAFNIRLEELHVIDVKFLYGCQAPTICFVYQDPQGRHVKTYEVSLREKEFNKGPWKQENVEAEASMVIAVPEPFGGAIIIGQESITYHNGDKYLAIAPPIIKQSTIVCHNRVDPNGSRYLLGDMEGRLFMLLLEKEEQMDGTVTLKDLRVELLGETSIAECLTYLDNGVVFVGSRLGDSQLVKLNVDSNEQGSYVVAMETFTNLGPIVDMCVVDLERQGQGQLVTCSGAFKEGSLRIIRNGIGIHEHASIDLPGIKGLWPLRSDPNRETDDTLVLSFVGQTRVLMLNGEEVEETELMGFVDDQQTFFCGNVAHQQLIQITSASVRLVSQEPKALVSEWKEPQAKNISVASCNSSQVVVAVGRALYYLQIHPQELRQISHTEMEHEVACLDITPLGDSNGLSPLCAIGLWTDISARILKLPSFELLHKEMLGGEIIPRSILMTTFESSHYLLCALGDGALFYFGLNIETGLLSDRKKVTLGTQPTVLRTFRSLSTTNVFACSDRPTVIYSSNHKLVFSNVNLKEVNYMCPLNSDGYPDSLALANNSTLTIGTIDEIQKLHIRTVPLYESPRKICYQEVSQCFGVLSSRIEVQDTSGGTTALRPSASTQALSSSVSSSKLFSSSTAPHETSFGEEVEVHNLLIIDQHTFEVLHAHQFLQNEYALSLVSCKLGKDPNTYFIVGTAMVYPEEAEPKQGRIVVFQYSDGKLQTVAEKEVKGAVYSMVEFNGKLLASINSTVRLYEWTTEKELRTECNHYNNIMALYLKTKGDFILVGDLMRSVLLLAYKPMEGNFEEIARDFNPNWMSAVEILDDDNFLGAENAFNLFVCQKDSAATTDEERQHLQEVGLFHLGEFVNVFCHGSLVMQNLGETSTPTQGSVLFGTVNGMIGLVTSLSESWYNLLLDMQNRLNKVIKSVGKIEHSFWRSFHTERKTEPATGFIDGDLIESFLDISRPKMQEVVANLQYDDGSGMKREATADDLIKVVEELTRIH

In the case of `O=C1CCC(N2Cc3cc(OC[C@@H]4CCCCN4Cc4ccc(N5CCCC5=O)cc4)ccc3C2=O)C(=O)N1` (stereo partly drawn) [Compound I-50o], the Dmax is 58.4%, the remaining activity at up to 25 µM amounted to 41.6% and the DC50 turned out to be 12.5 µM.

As to `O=C1CCC(N2Cc3cc(OC[C@@H]4CCCCN4Cc4cnn(C5CCCCC5)c4)ccc3C2=O)C(=O)N1` (stereo partly drawn) [Compound I-50p], the Dmax was 93.2%, the remaining activity at up to 25 µM came to 6.8% and the DC50 was determined as 0.047 µM.

Consider `O=C1CCC(N2Cc3cc(OC[C@@H]4CCCCN4Cc4ccccc4Cn4cncn4)ccc3C2=O)C(=O)N1` (stereo partly drawn) [Compound I-50q], for which the Dmax was determined as 4.5%, the remaining activity at up to 25 µM came out at 95.5% and the DC50 was more than 25 µM.

For `COc1cc(C#N)ccc1CN1CCCC[C@H]1COc1ccc2c(c1)CN(C1CCC(=O)NC1=O)C2=O` (stereo partly drawn) [Compound I-50r], the Dmax is 34.4%, the remaining activity at up to 25 µM stood at 65.6% and the DC50 is more than 25 µM.

As to `COc1cc(CN2CCCC[C@H]2COc2ccc3c(c2)CN(C2CCC(=O)NC2=O)C3=O)ccc1C` (stereo partly drawn) [Compound I-50s], the Dmax came to 84.3%, the remaining activity at up to 25 µM is 15.7% and the DC50 amounted to 3.8 µM.

Regarding `Cn1ccc2c(CN3CCCC[C@H]3COc3ccc4c(c3)CN(C3CCC(=O)NC3=O)C4=O)cccc21` (stereo partly drawn) [Compound I-50t], the Dmax was 85.2%, the remaining activity at up to 25 µM was determined as 14.8% and the DC50 worked out at 0.269 µM.

Consider `Cc1nccn1-c1ccc(CN2CCCC[C@H]2COc2ccc3c(c2)CN(C2CCC(=O)NC2=O)C3=O)cc1` (stereo partly drawn) [Compound I-50u], for which the Dmax is 70.1%, the remaining activity at up to 25 µM amounted to 29.9% and the DC50 came out at 2.64 µM.

Consider `O=C1CCC(N2Cc3cc(OC[C@@H]4CCCCN4Cc4ncc[nH]4)ccc3C2=O)C(=O)N1` (stereo partly drawn) [Compound I-50w], for which the Dmax was found to be 25.9%, the remaining activity at up to 25 µM turned out to be 74.1% and the DC50 was more than 25 µM.

For `O=C1CCC(N2Cc3cc(OC[C@@H]4CCCCN4Cc4cc(-n5nnnc5C(F)(F)F)ccc4O)ccc3C2=O)C(=O)N1` (stereo partly drawn) [Compound I-50x], the Dmax worked out at 22%, the remaining activity at up to 25 µM was found to be 78% and the DC50 was more than 25 µM.

On to `Cn1nnc2cc(CN3CCCC[C@@H]3COc3ccc4c(c3)CN(C3CCC(=O)NC3=O)C4=O)ccc21` (stereo partly drawn) [Compound I-50y], for which the Dmax worked out at 85.2%, the remaining activity at up to 25 µM was 14.8% and the DC50 was found to be 0.179 µM.

Turning to `CN(C)Cc1ncc(-c2ccc(Oc3cc(Cl)cnc3CN3CCCC[C@H]3COc3ccc4c(c3)CN(C3CCC(=O)NC3=O)C4=O)cc2)n1C` (stereo partly drawn) [Compound I-50z], the Dmax worked out at 79.2%, the remaining activity at up to 25 µM worked out at 20.8% and the DC50 was 3.2 µM.

Consider `CCN1CCOC[C@H]1COc1ccc2c(c1)CN(C1CCC(=O)NC1=O)C2=O` (stereo partly drawn) [Compound I-64, 3-(5-(((S)-4-ethylmorpholin-3-yl)methoxy)-1-oxoisoindolin-2-yl)piperidine-2,6-dione], for which the Dmax came to 21.5%, the remaining activity at up to 25 µM stood at 78.5% and the DC50 is more than 25 µM.

As to `O=C1CCC(N2Cc3cc(OC[C@@H]4CCCCN4C(=O)c4cccc(S(=O)(=O)O)c4)ccc3C2=O)C(=O)N1` (stereo partly drawn) [Compound I-72a], the Dmax was found to be 11.2%, the remaining activity at up to 25 µM stood at 88.8% and the DC50 is more than 25 µM.

Turning to `O=C1CCC(N2Cc3cc(OC[C@@H]4CCCCN4C(=O)c4ccc(Cl)c(I)c4)ccc3C2=O)C(=O)N1` (stereo partly drawn) [Compound I-72ad], the Dmax was determined as 52.8%, the remaining activity at up to 25 µM worked out at 47.2% and the DC50 is 17.4 µM.

In the case of `O=C1CCC(N2Cc3cc(OC[C@@H]4CCCCN4C(=O)c4cccc(N5CCOCC5)n4)ccc3C2=O)C(=O)N1` (stereo partly drawn) [Compound I-72ae], the Dmax came out at 14.7%, the remaining activity at up to 25 µM was found to be 85.3% and the DC50 was more than 25 µM.

With `O=C1CCC(N2Cc3cc(OC[C@@H]4CCCCN4C(=O)Cc4cc[nH]n4)ccc3C2=O)C(=O)N1` (stereo partly drawn) [Compound I-72af], the Dmax came out at 7.7%, the remaining activity at up to 25 µM is 92.3% and the DC50 was more than 25 µM.

For `CC(Oc1ccccc1Cl)C(=O)N1CCCC[C@H]1COc1ccc2c(c1)CN(C1CCC(=O)NC1=O)C2=O` (stereo partly drawn) [Compound I-72ag], the Dmax was found to be 5.4%, the remaining activity at up to 25 µM amounted to 94.6% and the DC50 is more than 25 µM.

Consider `CCc1ocnc1C(=O)N1CCCC[C@H]1COc1ccc2c(c1)CN(C1CCC(=O)NC1=O)C2=O` (stereo partly drawn) [Compound I-72ah], for which the Dmax is 22.9%, the remaining activity at up to 25 µM amounted to 77.1% and the DC50 is more than 25 µM.

In the case of `COc1ccc(-c2cc(C(=O)N3CCCC[C@H]3COc3ccc4c(c3)CN(C3CCC(=O)NC3=O)C4=O)[nH]n2)cc1` (stereo partly drawn) [Compound I-72ai], the Dmax is 41.6%, the remaining activity at up to 25 µM is 58.4% and the DC50 is more than 25 µM.

Regarding `O=C1CCC(N2Cc3cc(OC[C@@H]4CCCCN4C(=O)c4cc(-c5ccc(Br)cc5)on4)ccc3C2=O)C(=O)N1` (stereo partly drawn) [Compound I-72ak], the Dmax was found to be 78.9%, the remaining activity at up to 25 µM was determined as 21.1% and the DC50 turned out to be 0.686 µM.

As to `O=C1CCC(N2Cc3cc(OC[C@@H]4CCCCN4C(=O)c4ccc(N5CCOCC5)cc4)ccc3C2=O)C(=O)N1` (stereo partly drawn) [Compound I-72an], the Dmax came to 53.8%, the remaining activity at up to 25 µM was 46.2% and the DC50 came out at 13.8 µM.

Turning to `Cn1ccc(C(=O)N2CCCC[C@H]2COc2ccc3c(c2)CN(C2CCC(=O)NC2=O)C3=O)cc1=O` (stereo partly drawn) [Compound I-72ao], the Dmax stood at 8.3%, the remaining activity at up to 25 µM amounted to 91.7% and the DC50 is more than 25 µM.

As to `Cc1noc(-c2ccc(C(=O)N3CCCC[C@H]3COc3ccc4c(c3)CN(C3CCC(=O)NC3=O)C4=O)cc2)n1` (stereo partly drawn) [Compound I-72ar], the Dmax turned out to be 71.8%, the remaining activity at up to 25 µM came out at 28.2% and the DC50 was 2.57 µM.

As for `CCCc1cc(C(=O)N2CCCC[C@H]2COc2ccc3c(c2)CN(C2CCC(=O)NC2=O)C3=O)no1` (stereo partly drawn) [Compound I-72au], the Dmax stood at 39.9%, the remaining activity at up to 25 µM was found to be 60.1% and the DC50 was more than 25 µM.

For `O=C1CCC(N2Cc3cc(OC[C@@H]4CCCCN4C(=O)c4cccc(N5CCCCC5)n4)ccc3C2=O)C(=O)N1` (stereo partly drawn) [Compound I-72av], the Dmax came to 24.3%, the remaining activity at up to 25 µM turned out to be 75.7% and the DC50 was more than 25 µM.

For `CCCCc1cnc(C(=O)N2CCCC[C@H]2COc2ccc3c(c2)CN(C2CCC(=O)NC2=O)C3=O)nc1OC` (stereo partly drawn) [Compound I-72aw], the Dmax was 60.4%, the remaining activity at up to 25 µM is 39.6% and the DC50 worked out at 8.52 µM.

Regarding `CCc1cncc(C(=O)N2CCCC[C@H]2COc2ccc3c(c2)CN(C2CCC(=O)NC2=O)C3=O)c1` (stereo partly drawn) [Compound I-72ay], the Dmax stood at 17.6%, the remaining activity at up to 25 µM is 82.4% and the DC50 was more than 25 µM.

Take `COc1ccncc1C(=O)N1CCCC[C@H]1COc1ccc2c(c1)CN(C1CCC(=O)NC1=O)C2=O` (stereo partly drawn) [Compound I-72bc]: the Dmax came out at 3%, the remaining activity at up to 25 µM was determined as 97% and the DC50 is more than 25 µM.

For the molecule `CC(C)(C#N)c1cc(C(=O)N2CCCC[C@H]2COc2ccc3c(c2)CN(C2CCC(=O)NC2=O)C3=O)ccn1` (stereo partly drawn) [Compound I-72be], the Dmax was determined as 11.8%, the remaining activity at up to 25 µM is 88.2% and the DC50 is more than 25 µM.

For `O=C1CCC(N2Cc3cc(OC[C@@H]4CCCCN4C(=O)c4cccc(Cn5cncn5)c4)ccc3C2=O)C(=O)N1` (stereo partly drawn) [Compound I-72bi], the Dmax amounted to 3.9%, the remaining activity at up to 25 µM is 96.1% and the DC50 was more than 25 µM.

For the molecule `Cc1c(-c2ccccc2)n[nH]c1C(=O)N1CCCC[C@H]1COc1ccc2c(c1)CN(C1CCC(=O)NC1=O)C2=O` (stereo partly drawn) [Compound I-72by], the Dmax amounted to 52%, the remaining activity at up to 25 µM was found to be 48% and the DC50 worked out at 19.8 µM.

In the case of `CC(C)(C)Cc1cc(C(=O)N2CCCC[C@H]2COc2ccc3c(c2)CN(C2CCC(=O)NC2=O)C3=O)no1` (stereo partly drawn) [Compound I-72bz], the Dmax worked out at 46.7%, the remaining activity at up to 25 µM was determined as 53.3% and the DC50 was more than 25 µM.

Turning to `O=C1CCC(N2Cc3cc(OC[C@@H]4CCCCN4C(=O)c4cnnn4-c4ccccc4)ccc3C2=O)C(=O)N1` (stereo partly drawn) [Compound I-72c], the Dmax came to 20.6%, the remaining activity at up to 25 µM is 79.4% and the DC50 is more than 25 µM.

As for `O=C1CCC(N2Cc3cc(OC[C@@H]4CCCCN4C(=O)CCN4CCOCC4)ccc3C2=O)C(=O)N1` (stereo partly drawn) [Compound I-72ca], the Dmax was 10.2%, the remaining activity at up to 25 µM worked out at 89.8% and the DC50 was more than 25 µM.

For the molecule `CC(C)c1cc(C(=O)N2CCCC[C@H]2COc2ccc3c(c2)CN(C2CCC(=O)NC2=O)C3=O)no1` (stereo partly drawn) [Compound I-72cf], the Dmax came out at 35%, the remaining activity at up to 25 µM was 65% and the DC50 was more than 25 µM.

On to `Cc1n[nH]c(CC(=O)N2CCCC[C@H]2COc2ccc3c(c2)CN(C2CCC(=O)NC2=O)C3=O)n1` (stereo partly drawn) [Compound I-72cg], for which the Dmax was found to be 2.2%, the remaining activity at up to 25 µM worked out at 97.8% and the DC50 was more than 25 µM.

With `CCN(CC)CC(=O)N1CCCC[C@H]1COc1ccc2c(c1)CN(C1CCC(=O)NC1=O)C2=O` (stereo partly drawn) [Compound I-72cp], the Dmax is 12.1%, the remaining activity at up to 25 µM was found to be 87.9% and the DC50 is more than 25 µM.

As to `COc1cccc2c(C(=O)N3CCCC[C@H]3COc3ccc4c(c3)CN(C3CCC(=O)NC3=O)C4=O)c[nH]c12` (stereo partly drawn) [Compound I-72cq], the Dmax is 31.1%, the remaining activity at up to 25 µM stood at 68.9% and the DC50 is more than 25 µM.
